SMILES strings stand for the structures.

Data on 20 compounds can be found in patent US12459932B2, “KIF18A inhibitors” (AMGEN INC., priority 2018, dated 2025).

The target in this assay is T1, Recombinant human KIF18A (1-467 His-tagged) (Homo sapiens, UniProt Q8NI77).
T1 construct: Recombinant human KIF18A (1-467 His-tagged) protein; His
T1 sequence (Q8NI77 1-467): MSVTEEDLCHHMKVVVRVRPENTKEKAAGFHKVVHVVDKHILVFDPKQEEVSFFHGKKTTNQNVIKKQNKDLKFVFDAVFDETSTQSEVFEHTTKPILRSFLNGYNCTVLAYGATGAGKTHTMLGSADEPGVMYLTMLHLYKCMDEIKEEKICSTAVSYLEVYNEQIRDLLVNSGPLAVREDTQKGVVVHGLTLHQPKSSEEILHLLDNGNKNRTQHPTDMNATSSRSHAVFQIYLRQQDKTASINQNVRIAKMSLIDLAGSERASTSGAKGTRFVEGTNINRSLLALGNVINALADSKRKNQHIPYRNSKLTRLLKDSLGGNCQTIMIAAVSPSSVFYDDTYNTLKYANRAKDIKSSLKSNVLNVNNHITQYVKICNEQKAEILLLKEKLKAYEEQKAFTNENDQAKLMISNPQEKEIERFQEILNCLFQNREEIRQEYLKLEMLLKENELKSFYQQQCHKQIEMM
T1 sequence (P02550 whole entry partner): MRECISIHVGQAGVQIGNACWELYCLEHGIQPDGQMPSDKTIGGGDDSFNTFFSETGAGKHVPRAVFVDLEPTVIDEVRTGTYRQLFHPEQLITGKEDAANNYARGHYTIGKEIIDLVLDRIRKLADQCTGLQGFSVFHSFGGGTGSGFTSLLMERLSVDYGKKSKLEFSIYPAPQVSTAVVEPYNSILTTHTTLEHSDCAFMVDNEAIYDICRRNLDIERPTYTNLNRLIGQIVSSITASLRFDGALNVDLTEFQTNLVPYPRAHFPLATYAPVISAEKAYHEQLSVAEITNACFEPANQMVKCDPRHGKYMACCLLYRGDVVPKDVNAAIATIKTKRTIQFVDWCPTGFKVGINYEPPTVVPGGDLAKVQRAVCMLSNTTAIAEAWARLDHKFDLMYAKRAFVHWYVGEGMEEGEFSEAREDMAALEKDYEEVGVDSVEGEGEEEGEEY
T1 sequence (P02554 whole entry partner): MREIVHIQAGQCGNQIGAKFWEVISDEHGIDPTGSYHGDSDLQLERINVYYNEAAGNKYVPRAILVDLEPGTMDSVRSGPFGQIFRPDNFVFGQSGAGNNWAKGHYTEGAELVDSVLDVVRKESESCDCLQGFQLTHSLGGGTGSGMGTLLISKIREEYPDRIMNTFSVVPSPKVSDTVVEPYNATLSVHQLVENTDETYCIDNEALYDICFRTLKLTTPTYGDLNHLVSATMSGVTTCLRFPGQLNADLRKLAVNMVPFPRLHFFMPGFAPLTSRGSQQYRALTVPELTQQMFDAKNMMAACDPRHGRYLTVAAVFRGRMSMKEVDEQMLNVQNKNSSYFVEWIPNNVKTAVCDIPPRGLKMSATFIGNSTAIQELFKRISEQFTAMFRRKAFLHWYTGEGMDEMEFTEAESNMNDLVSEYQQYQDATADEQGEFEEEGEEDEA
Nature of the assay: KIF18A Enzyme Assay: microtubule-stimulated ATPase activity (ADP-Glo). The note with it: 30 nM KIF18A, 30 μg/mL pig microtubules, ATP 75 μM (Km), ADP-Glo luminescence. It is filed as biochemical. As to the method: KIF18A Enzyme Assay: Microtubule-stimulated ATPase activity assay is used to measure KIF18A enzyme activity after treatment with compound. Compounds were 2-fold serially diluted in DMSO (Sigma Inc) over 22-point concentration range. […] The assay measures ADP formed from the ATPase reaction. […] Read luminescence using EnVision microplate reader with ultra-luminescence module (Perkin Elmer Inc). Concentration-response curve-fitting and IC50 determination was performed using Genedata Screener Software (Standard 15.0.1, Genedata Inc) with a four-parameter logistic regression fit model.
In general terms: In ADP-Glo the light output rises with the ADP produced.
Consider `CC1(O)CCN(c2cccc(NC(=O)c3ccc(NS(=O)(=O)C4(C)CC4)cc3N3CCC4(CC3)CC4)n2)C1` (centres unmarked) [Example 3-2, N-(6-(3-Hydroxy-3-methylpyrrolidin-1-yl)pyridin-2-yl)-4-((1-methylcyclopropane)-1-sulfonamido)-2-(6-azaspiro[2.5]octan-6-yl)benzamide], for which the IC50 worked out at 359 nM.
On to `CC(C)(C)NS(=O)(=O)c1ccc(C(=O)Nc2cccc(N3CCC[C@H](O)C3)n2)c(N2CCC3(CC2)CC3)c1` [Example 3-3, (S)-4-(N-(tert-Butyl)sulfamoyl)-N-(6-(3-hydroxypiperidin-1-yl)pyridin-2-yl)-2-(6-azaspiro[2.5]octan-6-yl)benzamide], for which the IC50 worked out at 96 nM.
Turning to `CC(C)(C)NS(=O)(=O)c1ccc(C(=O)Nc2cccc(NC3(CO)COC3)n2)c(N2CCC3(CC2)CC3)c1` [Example 3-4, 4-(N-(tert-Butyl)sulfamoyl)-N-(6-((3-(hydroxymethyl)oxetan-3-yl)amino)pyridin-2-yl)-2-(6-azaspiro[2.5]octan-6-yl)benzamide], the IC50 was 149 nM.
Regarding `CC1(S(=O)(=O)Nc2ccc(C(=O)Nc3cccc(N4CCC(F)(F)C4)n3)c(N3CCC4(CC3)CC4)c2)CC1` [Example 3-5, N-(6-(3,3-Difluoropyrrolidin-1-yl)pyridin-2-yl)-4-((1-methylcyclopropane)-1-sulfonamido)-2-(6-azaspiro[2.5]octan-6-yl)benzamide], the IC50 is 45 nM.
In the case of `CC1(S(=O)(=O)Nc2ccc(C(=O)Nc3cccc(N4CCC[C@@H](CO)C4)n3)c(N3CCC4(CC3)CC4)c2)CC1` [Example 3-6, (R)-N-(6-(3-(Hydroxymethyl)piperidin-1-yl)pyridin-2-yl)-4-((1-methylcyclopropane)-1-sulfonamido)-2-(6-azaspiro[2.5]octan-6-yl)benzamide], the IC50 amounted to 86 nM.
For `CC1(S(=O)(=O)Nc2ccc(C(=O)Nc3cccc(N4CCC[C@H](CO)C4)n3)c(N3CCC4(CC3)CC4)c2)CC1` [Example 3-7, (S)-N-(6-(3-(Hydroxymethyl)piperidin-1-yl)pyridin-2-yl)-4-((1-methylcyclopropane)-1-sulfonamido)-2-(6-azaspiro[2.5]octan-6-yl)benzamide], the IC50 was 65 nM.
Consider `CC1(O)CCN(c2cccc(NC(=O)c3ccc(NS(=O)(=O)C4(C)CC4)cc3N3CCC4(CC3)CC4)n2)CC1` [Example 3-8, N-(6-(4-Hydroxy-4-methylpiperidin-1-yl)pyridin-2-yl)-4-((1-methylcyclopropane)-1-sulfonamido)-2-(6-azaspiro[2.5]octan-6-yl)benzamide], for which the IC50 is 243 nM.
For the compound `CC1(S(=O)(=O)Nc2ccc(C(=O)Nc3cccc(N4CCC[C@](C)(O)C4)n3)c(N3CCC4(CC3)CC4)c2)CC1` [Example 3-9, (S)-N-(6-(3-Hydroxy-3-methylpiperidin-1-yl)pyridin-2-yl)-4-((1-methylcyclopropane)-1-sulfonamido)-2-(6-azaspiro[2.5]octan-6-yl)benzamide], the IC50 turned out to be 175 nM.
`CC1(S(=O)(=O)Nc2ccc(C(=O)Nc3cccc(N4CCC[C@@](C)(O)C4)n3)c(N3CCC4(CC3)CC4)c2)CC1` [Example 3-10, (R)-N-(6-(3-Hydroxy-3-methylpiperidin-1-yl)pyridin-2-yl)-4-((1-methylcyclopropane)-1-sulfonamido)-2-(6-azaspiro[2.5]octan-6-yl)benzamide]: the IC50 stood at 143 nM.
With `CC1(S(=O)(=O)Nc2ccc(C(=O)Nc3cccc(N4CCO[C@@H](CO)C4)n3)c(N3CCC4(CC3)CC4)c2)CC1` [Example 3-11, (R)-N-(6-(2-(Hydroxymethyl)morpholino)pyridin-2-yl)-4-((1-methylcyclopropane)-1-sulfonamido)-2-(6-azaspiro[2.5]octan-6-yl)benzamide], the IC50 is 73 nM.
As for `CC1(S(=O)(=O)Nc2ccc(C(=O)Nc3cccc(N4CCO[C@H](CO)C4)n3)c(N3CCC4(CC3)CC4)c2)CC1` [Example 3-12, (S)-N-(6-(2-(Hydroxymethyl)morpholino)pyridin-2-yl)-4-((1-methylcyclopropane)-1-sulfonamido)-2-(6-azaspiro[2.5]octan-6-yl)benzamide], the IC50 was found to be 81 nM.
For `CC1(F)CCN(c2cccc(NC(=O)c3ccc(NS(=O)(=O)C4(C)CC4)cc3N3CCC4(CC3)CC4)n2)CC1` [Example 3-13, N-(6-(4-Fluoro-4-methylpiperidin-1-yl)pyridin-2-yl)-4-((1-methylcyclopropane)-1-sulfonamido)-2-(6-azaspiro[2.5]octan-6-yl)benzamide], the IC50 turned out to be 373 nM.
For the compound `CC1(S(=O)(=O)Nc2ccc(C(=O)Nc3cccc(N4CCCC(F)(F)C4)n3)c(N3CCC4(CC3)CC4)c2)CC1` [Example 3-14, N-(6-(3,3-Difluoropiperidin-1-yl)pyridin-2-yl)-4-((1-methylcyclopropane)-1-sulfonamido)-2-(6-azaspiro[2.5]octan-6-yl)benzamide], the half-inhibitory concentration (IC50) came to 38 nM.
In the case of `CC1(S(=O)(=O)Nc2ccc(C(=O)Nc3cccc(N4CCc5cc(Cl)ccc54)n3)c(N3CCC4(CC3)CC4)c2)CC1` [Example 3-15, N-(6-(5-Chloroindolin-1-yl)pyridin-2-yl)-4-((1-methylcyclopropane)-1-sulfonamido)-2-(6-azaspiro[2.5]octan-6-yl)benzamide] it was 33 nM; in that of `CC1(S(=O)(=O)Nc2ccc(C(=O)Nc3cccc(N4CC(F)C4)n3)c(N3CCC4(CC3)CC4)c2)CC1` [Example 3-16, N-(6-(3-Fluoroazetidin-1-yl)pyridin-2-yl)-4-((1-methylcyclopropane)-1-sulfonamido)-2-(6-azaspiro[2.5]octan-6-yl)benzamide], 58 nM; in that of `CC1(S(=O)(=O)Nc2ccc(C(=O)Nc3cccc(N4CCCCC4)n3)c(N3CCC4(CC3)CC4)c2)CC1` [Example 3-17, 4-((1-Methylcyclopropane)-1-sulfonamido)-N-(6-(piperidin-1-yl)pyridin-2-yl)-2-(6-azaspiro[2.5]octan-6-yl)benzamide], 34 nM.
As to `CC1(S(=O)(=O)Nc2ccc(C(=O)Nc3cccc(N4CC(F)(F)C4)n3)c(N3CCC4(CC3)CC4)c2)CC1` [Example 3-18, N-(6-(3,3-Difluoroazetidin-1-yl)pyridin-2-yl)-4-((1-methylcyclopropane)-1-sulfonamido)-2-(6-azaspiro[2.5]octan-6-yl)benzamide], the IC50 came out at 48 nM.
Turning to `Cc1cc(NC(=O)c2ccc(NS(=O)(=O)C3(C)CC3)cc2N2CCC3(CC2)CC3)nc(N2CC(F)(F)C2)c1` [Example 3-19, N-(6-(3,3-Difluoroazetidin-1-yl)-4-methylpyridin-2-yl)-4-((1-methylcyclopropane)-1-sulfonamido)-2-(6-azaspiro[2.5]octan-6-yl)benzamide], the IC50 amounted to 103 nM.
Regarding `CC1(S(=O)(=O)Nc2ccc(C(=O)Nc3cccc(N4CCC5(CC5)C4)n3)c(N3CCC4(CC3)CC4)c2)CC1` [Example 3-20, N-(6-(5-Azaspiro[2.4]heptan-5-yl)pyridin-2-yl)-4-((1-methylcyclopropane)-1-sulfonamido)-2-(6-azaspiro[2.5]octan-6-yl)benzamide], the concentration for half-maximal inhibition (IC50) was found to be 50 nM.
`CC1(S(=O)(=O)Nc2ccc(C(=O)Nc3cccc(N4CCC(C#N)CC4)n3)c(N3CCC4(CC3)CC4)c2)CC1` [Example 3-21, N-(6-(4-Cyanopiperidin-1-yl)pyridin-2-yl)-4-((1-methylcyclopropane)-1-sulfonamido)-2-(6-azaspiro[2.5]octan-6-yl)benzamide]: the IC50 is 91 nM.

By IC50 is commonly meant the concentration that inhibits the measured activity by half.
